# Measured values reported in PubChem BioAssay AID743095 (The Scripps Research Institute Molecular Screening Center, 2013).
# Calls of active or inactive are those of the source. How the calls were made is not given here.
# Target: Galanin receptor type 3 (Homo sapiens) (UniProt O60755)
# Assay: GalR3 antagonist potency curves, late-stage follow-up, cell-based, fluorescence, dose response (AID 743095)
# Details: GalR3 cell line, fluorescence antagonist assay
row,Structure (SMILES),IC50
1,CC1CC(=O)NN=C1c1ccc(N)c([N+](=O)[O-])c1 (configuration not stated),596 nM
2,COc1cc2c(cc1OC)[C@@H]1C(=O)c3ccc4c(c3O[C@@H]1CO2)C[C@H](C(C)C)O4,12.3 nM
3,Cc1oc(-c2ccc(Cl)cc2)nc1CSCC(=O)NC1CCN(Cc2ccccc2)CC1,1320 nM
4,CCN(CC)S(=O)(=O)c1cc(NC(=O)CNc2cccc(S(=O)(=O)N3CCOCC3)c2)ccc1C,3560 nM
5,COc1ccc(CCNc2ncnc3sccc23)cc1OC,438 nM
6,Cn1nc(C(C)(C)C)cc1C(=O)NCc1ccc(N2CCCC2=O)cc1,5270 nM
7,O=C(Cc1ccc(Cl)cc1Cl)Nc1ccncc1Cl,3890 nM
8,Cc1cc(C)nc(SCC(=O)Nc2ccnc3ccccc23)n1,1170 nM
9,COc1ccc(C(=O)CSc2nnc(Cn3cnc4ccccc43)o2)cc1,3180 nM
10,Cc1ccc(Oc2ccc(OCC(=O)Nc3ccncc3)cc2)cc1,428 nM
11,O=C(COc1ccc(C(=O)c2ccccc2)cc1)Nc1cccnc1,1240 nM
12,O=C(Nc1nc(-c2ccc(Cl)cc2Cl)cs1)c1ccc(OCC2CCCO2)cc1 (configuration not stated),1080 nM
13,CCOc1cc(S(=O)(=O)NCc2ccncc2)ccc1Cl,269 nM
14,Fc1ccc(NC(=S)N2CCCN(c3ccc(C(F)(F)F)cn3)CC2)c(F)c1,402 nM
15,CC(C)(C)c1ccc(-n2ncc3c2CCCC3NC(=O)C2(C(N)=O)CC2)cc1 (configuration not stated),2000 nM
16,Cc1cc(CSc2ccccc2)ccc1NC(=O)c1ccc(CN2CCOCC2)cc1,529 nM
17,CC(C)(C)NC(=O)COC(=O)c1snc(C(=O)NC2CCCCC2)c1N,3190 nM
18,CCOc1nc(C#N)nc(N2CCCCC2)n1,2820 nM
19,N#Cc1cc(-c2ccccc2)oc1NC(=O)c1ccco1,inactive

row,Structure (SMILES),IC50
1,NC(=O)c1c(-c2ccc(Cl)cc2Cl)csc1NC(=O)Cc1ccccc1,2370 nM
2,CCOC(=O)Cc1csc(NC(=O)c2cc(=O)c3ccccc3o2)n1,5810 nM
3,Nc1cc(-c2ccc(Br)cc2)nn1Cc1ccccc1,3620 nM
4,Nc1nonc1-n1nnc(C(=O)N/N=C/c2cc(Br)ccc2O)c1CSC1=NCCS1,6280 nM
5,S=C(NCCc1ccccc1)Nc1cccc2cnccc12,2620 nM
6,CSc1ccc(C(=O)C2CCCN(C(=O)CCc3c(C)nn(C)c3C)C2)cc1 (configuration not stated),4150 nM
7,NC(=O)c1nnn(Cc2cc(Cl)c(C(=O)c3ccc(Cl)cc3)c(Cl)c2)c1N,3440 nM
8,COc1ccc(CN(C)c2ccc(S(=O)(=O)N3CCN(C)CC3)cc2[N+](=O)[O-])cc1OC,448 nM
9,COc1ccc(NS(=O)(=O)c2ccc(NC(=O)c3ccc(CN4CCOCC4)cc3)cc2)cc1,3000 nM
10,CC(=O)c1ccc(N2CCN(C(=S)Nc3ccc(Oc4ccccc4)cc3)CC2)cc1,1230 nM
11,COc1ccc(-n2c(C)cc(C(=O)COC(=O)Cn3cnc4ccccc43)c2C)cc1,> 29900 nM (inactive)
12,Cc1nn(C)c(Nc2ccc(Br)cc2)c1Br,4140 nM
13,CC(=O)c1c(C)[nH]c(C(=O)COc2cc(C)ccc2C(C)C)c1C,3580 nM
14,CC(C)(C)c1ccc(C(=O)Nc2ccc(Oc3cccnc3)nc2)cc1,1140 nM
15,Cc1nn(C)c(Cl)c1NC(=O)OCc1ccc(Cl)cc1Cl,4160 nM
16,COc1ccc(CN2CCC(C(=O)Nc3ccc(Oc4ccccc4)nc3)CC2)cc1F,6970 nM
17,COc1cc(CSc2nnnn2-c2ccc(C)cc2)cc(OC)c1OC,3440 nM
18,Cc1cc(C(=O)CSc2nc(N)cc(=O)[nH]2)c(C)n1-c1ccc(OC(F)F)cc1,1350 nM
19,Cc1[nH]c(=O)c(C#N)cc1-c1ccccc1,inactive

row,Structure (SMILES),IC50
1,O=C(CSc1nnnn1C1CC2CCC1C2)Nc1ccnc2ccccc12 (configuration not stated),140 nM
2,Cc1nn(C)c(C)c1CN(C)S(=O)(=O)c1ccc2ccccc2c1,1230 nM
3,CCCOc1ccc(CSc2nc3ccccc3[nH]2)cc1,1200 nM
4,COc1ccc(OC)c(CCNC(=O)Cn2nc(C)c3c(C)n(-c4ccc(C)cc4)nc3c2=O)c1,3800 nM
5,Cc1ccccc1-c1cc(C(=O)Nc2sc(C(=O)OC(C)C)c(C)c2C#N)c2ccccc2n1,1130 nM
6,CCOC(=O)c1[nH]c2ccc(OC)cc2c1NS(=O)(=O)c1ccc(Cl)s1,3140 nM
7,CC(=O)c1cn(CC(=O)NCCc2c[nH]c3ccccc23)c2ccccc12,4140 nM
8,CCCCCn1c(=O)[nH]c2cc(C(=O)N3CCN(Cc4ccc5c(c4)OCO5)CC3)ccc2c1=O,143 nM
9,O=S(=O)(NCc1ccncc1)c1ccc(Br)s1,1800 nM
10,CC1(C)CC2CC(C)(CN2S(=O)(=O)c2ccc(C(=O)Nc3cccc(S(=O)(=O)N4CCOCC4)c3)cc2)C1 (configuration not stated),2110 nM
11,Cc1nc2ccccc2n1Cc1ccc(Cl)cc1,1260 nM
12,CC(C)(C)CN1CCN(Cc2nc(-c3ccc(F)cc3)cs2)CC1CCO (configuration not stated),3240 nM
13,CNc1ccccc1C(C)(C)c1cc(-c2ccc(F)cc2)no1,3830 nM
14,O=C(CSc1nnc(Cn2nnc3ccccc32)o1)N(Cc1ccc(F)cc1)c1ccccc1,1240 nM
15,CCCCc1ccc(NC(=O)c2ccc(N(C)S(C)(=O)=O)cc2)cc1,696 nM
16,Cc1cccc(Cl)c1NC(=O)N1CCCN(c2nc3ccc(Cl)cc3s2)CC1,1950 nM
17,CCCOC(=O)c1ccc(OCC(O)Cn2c(C)nc3ccccc32)cc1 (configuration not stated),3270 nM
18,Cc1ccccc1Cn1c(C)nc2ccccc21,3410 nM
19,COc1cccc2[nH]c3c(N4CCC(C)CC4)ncnc3c12,2760 nM
